As usually defined, the EC50 is the concentration at which the effect is half-maximal.

The target in data set [1] is T1, mTORC1 (mTOR/RAPTOR/LST8 complex) (Homo sapiens, UniProt P42345).
T1 construct: made in house
Nature of the data set: mTORC1 in vitro kinase assay (Phos-tag gel). Type of data set: biochemical. The following applies: 200 μM 1938. On the procedure: (§1) 133 protein kinases and 7 lipid kinases were counterscreened, with 1938 used at 1 μM, using the Adapta, Lantha and Z-LYTE assays (SelectScreen Kinase Profiling Service; Thermofisher – experimental details of these assays can be found here: https://www.thermofisher.com/uk/en/home/industrial/pharma-biopharma/drug-discovery-development/target-and-lead-identification-and-validation/kinasebiology/kinase-activity-assays.html. The tree represention in KinMap[59] generated courtesy of Cell Signaling Technology, Inc. (www.cellsignal.com). mTORC1 (mTOR/RAPTOR/LST8) protein complex and ATM kinase and substrates were produced as previously described[57],[60]. Screening of 1938 was conducted using SuperSep Phos-Tag 50 μmol/l 100 x 100 x 6.6 mm 17-well (192-18001/199-18011) gels. For ATM assays, 100 nM ATM was incubated for 30 min at 30°C with 5 μM GST-p53 and 1 mM ATP, in the absence or presence of 200 μM 1938 in ATM Kinase Buffer (50 mM HEPES pH 7.5, 100 mM NaCl, 10% glycerol, 2 mM […], 5 mM MgCl2). As a positive control for ATM activation, the same reaction was carried out with 100 nM ATM/5 μM GST-p53/1 mM ATP in the presence of 100 nM Mre11-Rad50-Nbs1 (MRN) complex, a known activator of ATM[61]. […] Gels were then stained using InstantBlue™ Coomassie, and quantified using BioRad Image Lab Software. […]

The target of the next data set is T2, ATM (Homo sapiens, UniProt Q13315).
T2 construct: made in house
Nature of the data set: ATM in vitro kinase assay (Phos-tag gel). In kind it is biochemical. Particulars: 200 μM 1938. How it is done: as §1

A further data set deals with mouse heart. Nature of the data set: In vivo model of ischaemia reperfusion injury in mice. Particulars: 10 mg/kg 1938 i.v., heart after 15 min; single mice.
The subject of a further data set is PI3Kα-KO MEFs. Nature of the data set: CellTiter-Glo cell assay, PI3Kα-KO MEFs. In kind it is cell-based, mouse. The following applies: 24h. On the procedure:
(§2) MEFs were seeded at 5000 cells per well in 96-well plates in DMEM supplemented with 10% FBS and 1% P/S, and allowed to attach overnight. The next day, cells were serum starved for 4 h prior to compound treatment in fresh serum-free DMEM. Compounds solubilised in DMSO were diluted 1:2 in a 12-point concentration response curve in DMSO. Intermediate plates were prepared by transferring 4 μl of compounds in DMSO into 96 μl of serum-free DMEM media. This was then used to treat cell plates by transferring 12.5 μl of solution from the intermediate plate into 87.5 μl of serum-free DMEM in the cell plates. […] Cell plates were incubated for 24 h, 48 h or 72 h at 37°C, 5% CO2, followed by determination of cell survival using the CellTiter-Glo® reagent according to manufacturer’s instructions (Promega #G7571). Endpoint luminescence was measured using CLARIOstar (BMG). Compound data were analyzed using GraphPad Prism 8.
Background: Cellular ATP, detected with luciferase, serves as a proxy for viable cell number.

A further data set has as its system MEFs. The data set is described as follows: Phosphoinositide quantification by mass spectrometry, MEFs. Type of data set: cell-based, mouse. How it is done: A549 cells (5.10^5) or wild-type MEFs (3.10^5) were plated in complete media onto 3.5 cm dishes or 60 mm dishes respectively for 24 h, prior to FCS-free starvation media for 16 h. MEFs, in addition, were supplemented with arachidonic acid in the FCS-free starvation media as previously described. […] Reactions were terminated in 600 μl ice-cold 1 M HCl and cells scraped and resuspended, then divided into two equal samples in eppendorfs. […] The data are shown as response ratios, calculated by normalizing the multiple reaction monitoring (MRM)-targeted lipid integrated response area to that of a known amount of relevant internal standard. To account for any cell input variability, PIP3 response ratios were normalized to C38:4-PI response ratios; while PI(3,4)P2 response ratios were normalised to PI(4,5)P2 response ratios. Data shown are mean ±SD for n ≥3, except for non-DMSO control in MEF PIP3 measurements where n=1.

In the next data set the test system is PI3Kα-WT MEFs. Nature of the data set: CellTiter-Glo cell assay, PI3Kα-WT MEFs. Type of data set: cell-based, mouse. How it is done: as §2

Values joined by “and” are separate entries in the source; they are usually repeats but may differ in a detail not shown here. Equal entries are not always repeated. A value given as a limit tells only on which side of the number the result lay.

T2 sequence (Q13315 whole entry): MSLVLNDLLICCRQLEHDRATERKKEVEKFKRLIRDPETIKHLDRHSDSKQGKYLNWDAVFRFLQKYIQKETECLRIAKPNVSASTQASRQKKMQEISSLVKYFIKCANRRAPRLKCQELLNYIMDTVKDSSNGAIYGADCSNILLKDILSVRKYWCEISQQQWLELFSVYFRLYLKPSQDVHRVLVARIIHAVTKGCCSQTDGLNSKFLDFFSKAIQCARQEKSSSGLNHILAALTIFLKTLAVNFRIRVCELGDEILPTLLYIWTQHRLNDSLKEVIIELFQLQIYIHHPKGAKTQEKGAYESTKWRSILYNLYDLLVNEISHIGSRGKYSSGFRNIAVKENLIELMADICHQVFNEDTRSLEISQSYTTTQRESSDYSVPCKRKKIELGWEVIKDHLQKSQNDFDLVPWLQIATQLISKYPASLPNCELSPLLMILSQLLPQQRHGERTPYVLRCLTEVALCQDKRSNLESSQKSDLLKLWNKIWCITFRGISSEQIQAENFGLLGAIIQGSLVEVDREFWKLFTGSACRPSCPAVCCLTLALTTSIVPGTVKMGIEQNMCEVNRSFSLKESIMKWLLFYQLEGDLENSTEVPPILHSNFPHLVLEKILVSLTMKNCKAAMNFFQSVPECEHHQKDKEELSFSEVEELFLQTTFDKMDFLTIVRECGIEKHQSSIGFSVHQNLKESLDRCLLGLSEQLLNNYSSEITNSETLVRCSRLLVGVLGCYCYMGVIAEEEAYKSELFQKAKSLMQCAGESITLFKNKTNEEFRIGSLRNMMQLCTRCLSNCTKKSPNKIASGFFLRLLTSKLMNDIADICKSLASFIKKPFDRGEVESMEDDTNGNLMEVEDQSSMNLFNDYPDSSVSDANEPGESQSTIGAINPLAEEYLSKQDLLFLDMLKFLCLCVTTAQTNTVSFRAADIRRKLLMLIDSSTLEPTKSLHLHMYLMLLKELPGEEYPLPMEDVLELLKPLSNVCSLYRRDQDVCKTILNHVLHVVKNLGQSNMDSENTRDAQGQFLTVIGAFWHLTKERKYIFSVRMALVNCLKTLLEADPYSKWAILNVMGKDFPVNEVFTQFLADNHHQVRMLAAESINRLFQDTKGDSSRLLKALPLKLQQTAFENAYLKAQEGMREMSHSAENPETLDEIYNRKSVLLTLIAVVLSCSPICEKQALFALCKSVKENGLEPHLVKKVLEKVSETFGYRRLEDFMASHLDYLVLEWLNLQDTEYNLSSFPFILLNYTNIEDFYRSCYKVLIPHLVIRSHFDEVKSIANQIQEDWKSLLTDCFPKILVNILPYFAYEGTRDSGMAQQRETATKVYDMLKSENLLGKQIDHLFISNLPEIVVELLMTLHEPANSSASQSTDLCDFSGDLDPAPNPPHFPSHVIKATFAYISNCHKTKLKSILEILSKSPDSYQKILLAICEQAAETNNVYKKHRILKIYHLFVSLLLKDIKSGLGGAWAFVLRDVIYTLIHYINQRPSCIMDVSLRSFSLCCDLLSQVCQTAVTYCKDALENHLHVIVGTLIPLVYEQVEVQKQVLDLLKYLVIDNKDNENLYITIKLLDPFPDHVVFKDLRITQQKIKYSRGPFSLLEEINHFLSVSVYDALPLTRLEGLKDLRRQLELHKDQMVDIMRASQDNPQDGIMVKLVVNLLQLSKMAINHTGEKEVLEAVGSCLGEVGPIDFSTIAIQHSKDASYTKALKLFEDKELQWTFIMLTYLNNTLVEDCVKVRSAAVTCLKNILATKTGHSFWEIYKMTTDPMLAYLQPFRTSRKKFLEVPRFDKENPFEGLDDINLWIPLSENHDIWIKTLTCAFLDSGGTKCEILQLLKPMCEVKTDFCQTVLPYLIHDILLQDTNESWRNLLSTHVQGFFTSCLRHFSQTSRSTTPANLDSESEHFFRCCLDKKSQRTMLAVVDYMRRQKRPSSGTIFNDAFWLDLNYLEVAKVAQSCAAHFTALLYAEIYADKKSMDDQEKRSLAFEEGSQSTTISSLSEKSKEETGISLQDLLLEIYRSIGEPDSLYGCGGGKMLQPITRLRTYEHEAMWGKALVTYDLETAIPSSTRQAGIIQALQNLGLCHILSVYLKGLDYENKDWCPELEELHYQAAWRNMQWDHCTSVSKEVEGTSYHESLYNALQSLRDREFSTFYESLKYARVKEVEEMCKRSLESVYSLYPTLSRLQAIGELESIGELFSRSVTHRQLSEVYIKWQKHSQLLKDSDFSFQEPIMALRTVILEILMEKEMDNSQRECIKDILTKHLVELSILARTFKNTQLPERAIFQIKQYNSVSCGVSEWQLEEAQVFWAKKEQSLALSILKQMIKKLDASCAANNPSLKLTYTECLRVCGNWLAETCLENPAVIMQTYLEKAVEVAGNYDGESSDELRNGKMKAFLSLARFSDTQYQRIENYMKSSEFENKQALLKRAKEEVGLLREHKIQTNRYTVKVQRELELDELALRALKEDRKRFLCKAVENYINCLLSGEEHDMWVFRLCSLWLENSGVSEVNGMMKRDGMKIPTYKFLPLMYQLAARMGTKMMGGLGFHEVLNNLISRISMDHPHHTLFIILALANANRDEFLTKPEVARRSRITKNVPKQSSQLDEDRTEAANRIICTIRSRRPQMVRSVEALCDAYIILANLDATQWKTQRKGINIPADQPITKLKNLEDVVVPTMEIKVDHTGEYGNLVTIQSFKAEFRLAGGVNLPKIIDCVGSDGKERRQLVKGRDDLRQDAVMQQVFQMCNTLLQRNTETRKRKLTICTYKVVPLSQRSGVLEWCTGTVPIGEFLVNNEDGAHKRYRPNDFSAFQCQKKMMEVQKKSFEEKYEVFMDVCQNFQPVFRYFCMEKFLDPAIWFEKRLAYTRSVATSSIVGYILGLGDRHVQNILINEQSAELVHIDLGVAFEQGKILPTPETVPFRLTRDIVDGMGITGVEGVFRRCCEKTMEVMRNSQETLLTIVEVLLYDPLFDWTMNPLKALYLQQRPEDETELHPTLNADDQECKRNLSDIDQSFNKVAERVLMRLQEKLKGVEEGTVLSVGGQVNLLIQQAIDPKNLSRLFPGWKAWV

`CCN1CCN(c2ccc(Nc3cc(Nc4cccc5c4N(C(C)=O)CC5)ccn3)cc2)CC1` [Compound 1938]: the “effect on mTORC1 activity” value in data set [1] is on record as “did not affect the activity”. Further, on ATM, the “effect on ATM activity” value is on record as “did not affect the activity”. Further, in the data set with mouse heart, the “Western blot pAkt in vivo: pAkt/tAkt” value is 7.58 and 5.35 and 5.18. In the data set on PI3Kα-KO MEFs, the “concentrations with a decrease in ATP levels (PI3Kα-independent effects)” value is above 7.5 µM. Besides, in the data set on MEFs, the “time for which maximal PIP3 level is maintained” value is “up to 40 min”, the “time of maximal PIP3 level” value worked out at 5 min and the “time to increased PIP3 levels” value was at most 30 s. For the same compound, in the data set on MEFs (2 min), the “concentration at which PIP3 induction plateaus” value is “around 10 μM”. In addition, in the data set on MEFs (2 min time point), the “PIP3 levels compared with insulin and PDGF” value is on record as “comparable to those induced by insulin”. Further, the half-maximal effective concentration (EC50) in the data set with MEFs (Mus musculus, 2 min, read-out: EC50 of PIP3 induction) is around 5000 nM. The “concentrations with a decrease in ATP levels (PI3Kα-independent effects)” value in the data set with PI3Kα-WT MEFs (24h) was above 7.5 µM. Further, the “concentration from which non-PI3Kα-dependent effects are observed” value with PI3Kα-WT MEFs (48h and 72h incubation, PI3Kα-WT and PI3Kα-KO MEFs) was in the range of 2 to 4 µM. The EC50 in the data set with PI3Kα-WT MEFs (Mus musculus, 24h treatment, read-out: EC50 of increase in metabolic activity (ATP content)) is around 500 nM.
